Experimental findings from patent US4533498A, “Compounds” (Beecham Group p.l.c., priority 1983, dated 1985) are described below.

The test system of one assay is vomiting response. As to the kind of experiment: Anti-emetic activity in the dog: inhibition of apomorphine-induced vomiting response. It is filed as in vivo. To be noted: s.c. 30 minutes prior to apomorphine HCl 0.1 mg/kg s.c.; for ED50: Canis lupus familiaris, sc. As to the method: Compounds were administered subcutaneously 30 minutes prior to administration of a standard dose of apormorphine HCl (0.1 mg/kg subcutaneously) and the vomiting response compared to that obtained when the same animals were dosed with apomorphine HCl and vehicle only. The ED50 value for inhibition of the vomiting response determined for compounds (17), (29) and (30) was 0.1 mg/kg, and for compound (19) 0.01 mg/kg s.c.

The test system of a further assay is intragastric pressure. As to the kind of experiment: Increase in intragastric pressure (conscious restrained rats, gastric fistula). Format: in vivo, rat. The settings on record: 40 minute period after administration, Student's t test vs spontaneous activity. As to the method: Intragastric pressure changes were recorded from previously starved conscious but restrained rats using a saline filled catheter inserted into the lumen of the stomach via a permanent gastric fistula. The catheter was connected to a physiological pressure transducer and pressure changes recorded on a hot wire pen recorder. In each animal a pre-dose period of 40 minutes was allowed to obtain a measure of spontaneous activity. An index of activity was obtained by measuring the average height of pressure waves during 10 minute periods. Values for 4 such periods were obtained during assessment of spontaneous activity and for a 40 minute period after administration of compound. Student's `t` test was applied to the difference in average values obtained for spontaneous and post compound activity.

The next assay relates to dopamine receptor. As to the kind of experiment: Dopamine receptor blocking activity in the central nervous system: inhibition of apomorphine induced climbing in the mouse. The settings on record: apomorphine 1 mg/kg s.c.; for ED50 (inhibition of apomorphine induced climbing): scored at 10, 20 and 30 minutes; for inhibition of apomorphine induced climbing, result in words: printed beside ED50 10 mg/kg s.c. Format: in vivo. How it is done: Compounds were tested for inhibition of apomorphine induced climbing in the mouse. The test is based on that described by Protais, P., Constantin, J. and Schwartz, J. C. (1976), Psychopharmacology, 50, 1-6.
Apomorphine 1 mg/kg s.c. induces mice to climb the wall of a wire cage (inverted food hopper--11×7.5×18 cm high). Mice acclimatised in their home cages in groups of 5 are placed under the hoppers immediately after the injection of apomorphine 1 mg/kg s.c. At 10, 20 and 30 minutes after injection climbing behaviour is scored. The mice are observed for 30 seconds and scored according to the position they spend the majority of time in, score 0--four paws on floor of cage; score 1--fore paws only on walls; score 2--all paws on wall of cage. The scores at all 3 times and for each mouse are summed and mice drug treated compared to mice receiving apomorphine only. A saline only treated group is also included and any score, generally >5% of maximum taken into account.

Take `COc1cc(N)c(Cl)cc1C(=O)NC1CC2CCC1CN2C` (racemic) [Compound 17, (±)-4-Amino-5-chloro-2-methoxy-N-(5-[2-methyl-2-azabicyclo[2,2,2]octyl]benzamide]: in the assay with vomiting response, the ED50 stood at 0.1 mg/kg. The “index of activity (average height of pressure waves) post administration” value (“index of activity” for short) with intragastric pressure (0.5 mg/kg s.c.) is listed as “significantly increased the index of activity”. The “ED50 (inhibition of apomorphine induced climbing)” value with dopamine receptor is on record as 7.7 mg/kg s.c.
In the case of `COc1cc(N)c(Cl)cc1C(=O)NC1CC2CCC1CN2C` (racemic) [Compound 18, (±) 4-Amino-5-chloro-2-methoxy-N-(5-[2-methyl-2-azabicyclo[2,2,2]octyl]benzamide], the “index of activity” value with intragastric pressure (0.5 mg/kg s.c.) is listed as “significantly increased the index of activity”. Besides, in the assay on dopamine receptor, the “inhibition of apomorphine induced climbing, result in words” value was “inactive” and the “ED50 (inhibition of apomorphine induced climbing)” value came out at 10 mg/kg s.c.
Turning to `COc1cc(N)c(Cl)cc1C(=O)NC1CC2CCC1CN2Cc1ccccc1` (racemic) [Compound 19, (±)-4-Amino-5-chloro-2-methoxy-N-(5-[2-benzyl-2-azabicyclo[2,2,2]octyl]benzamide], in the assay on vomiting response, the 50% effect level (ED50) was put at a dose of 0.01 mg/kg. Further, in the assay on intragastric pressure (1.0 mg/kg s.c.), the “index of activity” value is “similarly active”. The “ED50 (inhibition of apomorphine induced climbing)” value with dopamine receptor is on record as 0.36 mg/kg s.c.
On to `COc1cc(N)c(Cl)cc1C(=O)NC1CC2CCC1CN2Cc1ccccc1` (racemic) [Compound 20, (±) 4-Amino-5-chloro-2-methoxy-N-(5-[2-benzyl-2-azabicyclo[2,2,2]octyl])benzamide], for which, in the assay on intragastric pressure (0.5 mg/kg s.c.), the “index of activity” value is recorded as “significantly increased the index of activity”. Also, the “ED50 (inhibition of apomorphine induced climbing)” value in the assay on dopamine receptor was determined as 3.6 mg/kg s.c.
As to `COc1cc(N)c(Cl)cc1C(=O)NC1CC2CC1CN2C` (racemic) [Compound 26, (±) 4-amino-5-chloro-2-methoxy-N-[5-(2-methyl-2-azabicyclo(2.2.1)heptyl)]benzamide], the “index of activity” value in the assay on intragastric pressure (0.5 mg/kg s.c.) is on record as “significantly increased the index of activity”. Also, in the assay with dopamine receptor, the “inhibition of apomorphine induced climbing, result in words” value was “inactive” and the “ED50 (inhibition of apomorphine induced climbing)” value is listed as 10 mg/kg s.c.
Consider `COc1cc(N)c(S(C)(=O)=O)cc1C(=O)NC1CC2CCC1CN2Cc1ccccc1` (stereo not shown) [Compound 29, 4-amino-2-methoxy-5-methylsulphonyl-N-[5-(2-benzyl-2-azabicyclo(2.2.2)octyl)]benzamide], for which the 50% effect level in the assay with vomiting response (ED50) was put at a dose of 0.1 mg/kg.
Regarding `COc1cc(N)c(S(C)(=O)=O)cc1C(=O)NC1CC2CCC1CN2Cc1ccccc1` (stereo not shown) [Compound 30, 4-amino-2-methoxy-5-methylsulphonyl-N-[5-(2-benzyl-2-azabicyclo(2.2.2)octyl)]benzamide], in the assay on vomiting response, the “ED50 value for inhibition of the vomiting response” value is listed as 0.1 mg/kg.
